The values that follow are results of earlier work, collected in US20150018320A1, “Hormone Containing Emulsion Comprising Krill Phospholipids” (B. Braun Melsungen AG, priority 2012, published 2015).

The subject of the data set is TBI patients. Conditions: two clinical trials.

Take `CC(=O)[C@H]1CC[C@H]2[C@@H]3CCC4=CC(=O)CC[C@]4(C)[C@H]3CC[C@]12C` [progesterone, pregn-4-ene-3,20-dione]: the mortality entry is recorded as “decreased mortality”; the safety and tolerability entry is “safe and well tolerated”.
